# Residues, ends and D or L forms follow the SMILES beside them.
# Tests used:
# trypsin = target: T1, trypsin (Bos taurus, UniProt P00760); assay: Trypsin inhibition, fluorimetric enzyme assay; format: biochemical
# T1 construct: gene PRSS1
# T1 sequence (P00760 24-246): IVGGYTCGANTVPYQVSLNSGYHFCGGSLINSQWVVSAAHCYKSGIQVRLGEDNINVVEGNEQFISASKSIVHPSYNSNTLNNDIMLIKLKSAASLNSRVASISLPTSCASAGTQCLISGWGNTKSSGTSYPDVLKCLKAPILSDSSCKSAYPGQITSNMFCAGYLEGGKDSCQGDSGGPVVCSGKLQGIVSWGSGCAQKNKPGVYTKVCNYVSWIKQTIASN
# dengue 2 protease [1] = target: T2, dengue 2 protease (Dengue virus type 2, UniProt P14340); assay: Dengue 2 protease inhibition, hydrolysis of Z-RR-MCA; format: biochemical, dengue 2 virus; set-up: Activity with inhibitors: unit not given here; conditions: for activity at 5 µM: 5 μM inhibitor; for activity at 10 µM: 10 μM inhibitor; for activity at 15 µM: 15 μM inhibitor; for activity at 40 µM: 40 μM inhibitor
# T2 construct: The active site of the dengue protease is in the N-terminal part of NS3
# T2 sequence (P14340 1476-1653): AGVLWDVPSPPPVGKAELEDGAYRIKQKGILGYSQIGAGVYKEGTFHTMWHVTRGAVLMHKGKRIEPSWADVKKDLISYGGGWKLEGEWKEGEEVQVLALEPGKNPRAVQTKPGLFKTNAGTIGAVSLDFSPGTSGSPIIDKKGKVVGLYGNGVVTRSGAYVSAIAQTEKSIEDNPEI
# human furin = human furin (Homo sapiens, UniProt P09958); assay: Human furin inhibition, hydrolysis of Ac-RVRR-MCA; format: biochemical; conditions: for activity at 5 µM: 5 μM inhibitor; for activity at 10 µM: 10 μM inhibitor; for activity at 15 µM: 15 μM inhibitor; for activity at 40 µM: 40 μM inhibitor
# Chain of human furin (P09958 108-794): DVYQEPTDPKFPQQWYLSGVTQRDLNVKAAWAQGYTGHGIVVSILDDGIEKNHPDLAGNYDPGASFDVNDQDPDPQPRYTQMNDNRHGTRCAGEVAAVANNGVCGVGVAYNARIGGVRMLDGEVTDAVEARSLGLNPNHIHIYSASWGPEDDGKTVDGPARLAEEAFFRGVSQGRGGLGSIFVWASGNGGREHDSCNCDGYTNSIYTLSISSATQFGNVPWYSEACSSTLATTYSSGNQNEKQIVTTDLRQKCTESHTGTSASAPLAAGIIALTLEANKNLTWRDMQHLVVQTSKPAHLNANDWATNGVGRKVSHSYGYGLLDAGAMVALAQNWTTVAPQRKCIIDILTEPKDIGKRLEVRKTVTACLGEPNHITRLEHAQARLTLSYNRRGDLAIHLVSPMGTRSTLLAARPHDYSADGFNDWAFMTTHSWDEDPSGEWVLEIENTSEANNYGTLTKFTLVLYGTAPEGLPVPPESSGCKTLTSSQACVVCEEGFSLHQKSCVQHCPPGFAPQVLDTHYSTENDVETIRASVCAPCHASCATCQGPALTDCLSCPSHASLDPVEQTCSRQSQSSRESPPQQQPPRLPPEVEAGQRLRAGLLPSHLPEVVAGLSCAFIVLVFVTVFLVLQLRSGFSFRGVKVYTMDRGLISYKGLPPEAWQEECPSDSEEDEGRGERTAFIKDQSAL
# Summary of the method: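 Fluorogenic Ac-RVRR-MCA hydrolysis by furin in 10 mM MES, 1 mM CaCl2, pH 7.0, 36.5° C, […]. Residual activity measured by fluorescence at increasing inhibitor levels; Ki from Morrison equation for competitive tight-binding inhibition, with Kiapp correction for [S]˜Km.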
# thrombin = thrombin (Homo sapiens, UniProt P00734); assay: Thrombin inhibition, fluorimetric enzyme assay; format: biochemical; conditions: 36.5° C., read-out: Residual Activity (%) Thrombin
# plasmin = plasmin (Homo sapiens, UniProt P00747); assay: Plasmin inhibition, fluorimetric enzyme assay; format: biochemical; conditions: 36.5° C., read-out: Residual Activity (%) Plasmin
# Chain of plasmin (P00747 581-810 limits assumed, species assumed): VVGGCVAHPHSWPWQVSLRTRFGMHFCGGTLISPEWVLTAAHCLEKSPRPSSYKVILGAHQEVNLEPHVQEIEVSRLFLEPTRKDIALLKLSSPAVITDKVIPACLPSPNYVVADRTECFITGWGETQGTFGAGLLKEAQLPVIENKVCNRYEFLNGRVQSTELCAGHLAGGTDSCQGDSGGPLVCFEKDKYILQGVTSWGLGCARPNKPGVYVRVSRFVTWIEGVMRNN
# Chain of plasmin (P00747 97-580 partner limits assumed, species assumed): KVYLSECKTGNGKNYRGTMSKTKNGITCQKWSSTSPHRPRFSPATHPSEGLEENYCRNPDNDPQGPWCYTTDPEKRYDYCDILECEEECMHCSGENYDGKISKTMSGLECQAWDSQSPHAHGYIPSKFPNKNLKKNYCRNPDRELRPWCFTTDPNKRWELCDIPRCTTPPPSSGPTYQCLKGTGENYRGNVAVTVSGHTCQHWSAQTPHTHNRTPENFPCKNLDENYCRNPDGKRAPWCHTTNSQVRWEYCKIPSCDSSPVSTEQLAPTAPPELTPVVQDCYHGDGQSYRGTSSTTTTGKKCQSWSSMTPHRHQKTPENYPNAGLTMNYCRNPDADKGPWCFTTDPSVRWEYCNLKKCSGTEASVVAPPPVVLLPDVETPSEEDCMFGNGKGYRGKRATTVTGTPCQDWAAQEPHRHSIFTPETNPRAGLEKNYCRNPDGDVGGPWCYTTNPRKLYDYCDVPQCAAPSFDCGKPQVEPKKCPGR
# Experimental: The enzyme was dissolved in 1 mL MES buffer (10 mM), 1 mM CaCl2, pH 7.0 at 36.5° C. Substrate was added in a concentration 10 times the Km, and the inhibitor compounds of type C (C16-KGnK-C16, C16-KAnK-C16, and C16-RAnR-C16) were added in increasing concentrations (1.0, 5.0, 10.0, 20.0, 40.0 μL) from a stock solution of 2 mg in 1 mL DMSO. The residual activity was measured in a Hitachi F2500 spectrofluorimeter, and plots were fitted using the Grafit® software (Erithracus Software, Horley, Surrey, UK). All the assays were calculated by the Morrison equation for competitive inhibition (eq. 1, [Morrison, 1969]). The amount of substrate used for the tight binding titration experiments follow all the requirements, where [S]<<Km for all enzymes, so the Kiapp=Ki.
# The first group of gemini-like peptide amphiphiles to be screened was that of C16-K(G or A)nK-C16 (compound type C, with R1=n-C15H31, R2=n-C16H33). […] The results of the Ki determination for trypsin, dengue 2 protease, and human furin are given in Table 1A; some general data for the inhibition by this type of compounds are given in Table 1B. For most compounds in Table 1 the Ki could be derived from competitive inhibition experiments. Judging from the Ki values with the relatively simple substrate Z-RR-MCA, the best inhibitors for dengue 2 protease contain alanine (A) rather than glycine (G).
# dengue 2 protease [2] = target: T2, dengue 2 protease; assay: Dengue 2 protease inhibition in presence of Triton X-100 (detergent test, Nature Protocol); format: biochemical, dengue 2 virus; conditions: 0.05% Triton X-100; for Activity with 0.05% Triton: initial activity in UAF/min
# Description: A further investigation of the interactions of the geminoid inhibitors with biological membranes and with membrane-bound proteases is needed. […] The preparation and tests of peptides symmetrically, asymmetrically and singly alkylated with saturated, short (C6), and unsaturated (C18:1) alkyl tails are in progress.
# DENV2 protease replicon = DENV2 protease replicon assay; format: cell-based; conditions: lowest concentration with observed activity in replicon assay
# DENV2 protease = target: T3, DENV2 protease (Dengue virus type 2, UniProt P14340); assay: DENV2 protease biochemical assay; conditions: 50 μM inhibitor
# T3 construct: The active site of the dengue protease is in the N-terminal part of NS3
# T3 sequence (P14340 1476-1653): as the sequence (P14340 1476-1653) above
# T3 sequence (P14340 1398-1437): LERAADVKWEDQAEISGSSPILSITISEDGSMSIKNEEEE
compound,measurement,setting,value
CCCCCCCCCCCCCCCCNC(=O)[C@H](CCCCN)NC(=O)[C@H](C)NC(=O)[C@H](CCCCN)NC(=O)CCCCCCCCCCCCCCC [C16-KAK-C16],Ki,trypsin,15.2 µM
same,remaining activity at 15 µM,"trypsin; 15 μM inhibitor, 36.5° C., read-out: Residual Activity (%) Trypsin",68%
same,remaining activity at 40 µM,"trypsin; 40 μM inhibitor, 36.5° C., read-out: Residual Activity (%) Trypsin",35%
same,remaining activity at 80 µM,"trypsin; 80 μM inhibitor, 36.5° C., read-out: Residual Activity (%) Trypsin",21%
same,Ki,dengue 2 protease [1],0.37 µM
same,activity at 2.5 µM,"dengue 2 protease [1]; 2.5 μM inhibitor, 36.5° C.",87%
same,activity at 5 µM,dengue 2 protease [1]; 36.5° C.,66%
same,activity at 10 µM,dengue 2 protease [1]; 36.5° C.,26%
same,activity at 15 µM,dengue 2 protease [1]; 36.5° C.,15%
same,activity at 40 µM,dengue 2 protease [1]; 36.5° C.,6%
same,activity at 2.5 µM,"human furin; 2.5 μM inhibitor, 36.5° C.",43%
same,activity at 5 µM,human furin; 36.5° C.,30%
same,activity at 10 µM,human furin; 36.5° C.,10%
same,activity at 15 µM,human furin; 36.5° C.,0%
same,activity at 40 µM,human furin; 36.5° C.,0%
same,Ki,"human furin; 10 mM Mes.NaOH, pH 7.0, 2.35 μM Ac-RVRR-MCA, 37° C., read-out: Ki hFurin",0.54 µM
same,remaining activity at 15 µM,thrombin; 15 μM inhibitor,80%
same,remaining activity at 40 µM,thrombin; 40 μM inhibitor,64%
same,remaining activity at 80 µM,thrombin; 80 μM inhibitor,42%
same,remaining activity at 15 µM,plasmin; 15 μM inhibitor,62%
same,remaining activity at 40 µM,plasmin; 40 μM inhibitor,20%
same,remaining activity at 80 µM,plasmin; 80 μM inhibitor,3%
same,% recovery in presence of Triton,dengue 2 protease [2]; 30 μM of inhibitor,41%
same,Activity with 0.05% Triton,dengue 2 protease [2]; 30 μM of inhibitor,91
same,Replicon activity [μM] (1),DENV2 protease replicon,0.3 µM
same,inhibition at 50 µM,DENV2 protease,106%
"CCCCCCCCCCCCCCCCNC(=O)[C@H](CCCCN)NC(=O)CNC(=O)CNC(=O)[C@H](CCCCN)NC(=O)CCCCCCCCCCCCCCC [C16-KGGK-C16, C15H31CO-KGGK-NH—C16H33] (HELM PEPTIDE1{[CCCCCCCCCCCCCCCC(=O)[*:2]].K.G.G.K.[CCCCCCCCCCCCCCCCN[*:1]]}$$$$V2.0)",remaining activity at 18 µM,"trypsin; 18 μM inhibitor, 36.5° C., read-out: Residual Activity (%) Trypsin",79%
same,remaining activity at 55 µM,"trypsin; 55 μM inhibitor, 36.5° C., read-out: Residual Activity (%) Trypsin",45%
same,remaining activity at 85 µM,"trypsin; 85 μM inhibitor, 36.5° C., read-out: Residual Activity (%) Trypsin",24%
same,Ki,dengue 2 protease [1],5.75 µM
same,activity at 5 µM,dengue 2 protease [1]; 36.5° C.,88%
same,activity at 10 µM,dengue 2 protease [1]; 36.5° C.,84%
same,Activity with inhibitors,"dengue 2 protease [1]; 10 μM of inhibitor, 10 μM Z-RR-MCA, pH 9.0, 37° C., initial activity in UAF/min",10
same,activity at 15 µM,dengue 2 protease [1]; 36.5° C.,76%
same,activity at 20 µM,"dengue 2 protease [1]; 20 μM inhibitor, 36.5° C.",70%
same,activity at 40 µM,dengue 2 protease [1]; 36.5° C.,64%
same,activity at 5 µM,human furin; 36.5° C.,94%
same,activity at 10 µM,human furin; 36.5° C.,85%
same,activity at 15 µM,human furin; 36.5° C.,76%
same,activity at 20 µM,"human furin; 20 μM inhibitor, 36.5° C.",67%
same,activity at 40 µM,human furin; 36.5° C.,3%
same,remaining activity at 18 µM,thrombin; 18 μM inhibitor,78%
same,remaining activity at 55 µM,thrombin; 55 μM inhibitor,46%
same,remaining activity at 85 µM,thrombin; 85 μM inhibitor,33%
same,remaining activity at 18 µM,plasmin; 18 μM inhibitor,30%
same,remaining activity at 55 µM,plasmin; 55 μM inhibitor,11%
same,remaining activity at 85 µM,plasmin; 85 μM inhibitor,4%
same,% recovery in presence of Triton,dengue 2 protease [2]; 10 μM of inhibitor,73%
same,Activity with 0.05% Triton,dengue 2 protease [2]; 10 μM of inhibitor,160
same,Replicon activity [μM] (1),DENV2 protease replicon,0.3 µM
same,inhibition at 50 µM,DENV2 protease,104%

# Source: patent publication US20220017572A1, “GEMINOID LIPOPEPTIDE COMPOUNDS AND THEIR USES” (Erasmus University Medical Center Rotterdam, priority 2016, published 2022)
